Experimental data from patent US20080125498A1, “TREATMENT OF NEURODEGENERATIVE DISEASES AND CONDITIONS USING PAR1 ANTAGONISTS” (priority 2001, published 2008).

What was measured:
[1] = system: NMDA receptor; test: Whole cell patch recording of NMDA-evoked currents in hippocampal CA1 pyramidal cells of wild-type and PAR1-/- mice; format: cell-based, mouse
[2] = system: hippocampal slices; test: Transmitted light measurements in hippocampal slices (extracellular volume fraction); format: cell-based, rat; details: 3-7 U/ml thrombin, 10-20 minutes
Method: Rat hippocampal slices were prepared as described above, and were bathed in a submerged chamber with 0.5 micromolar TTX, and 3-7 U/ml thrombin in 0.5 micromolar TTX applied for 10-20 minutes. The intensity of transmitted light (450-490 nm) through hippocampal slices was monitored as an indication of extracellular volume fraction (Andrew and MacVicar, Imaging cell volume changes and neuronal excitation in the hippocampal slice. Neuroscience 62: 371-383, 1994). Images were recorded using a Princeton Micromax CCD camera (Trenton, N.J.; 0.2 sec exposure every 20 to 40 sec) and analyzed using Axon Imaging Workbench 2.1 software (Foster City, Calif.). Intensity was expressed as I/Io where Io is the intensity of transmitted light prior to treatment. Solutions were made hyperosmotic by addition of 30 mM mannitol, which can produce a 10% expansion of the extracellular volume fraction (McBain et al. Regional variation of extracellular space in hippocampus. Science 249: 674-677, 1990). Hypoosmotic solutions were obtained by addition of 10% v/v water.

[3] = system: NR1 subunit; test: NMDA receptor subunit immunoblots of thrombin-treated brain membranes; format: biochemical, rat
Method: (§1) NMDA receptor subunit immunoblots. Human embryonic kidney (HEK) cells were maintained in DMEM supplemented with 0.5 mM glutamine, 1 mM pyruvate, penicillin, streptomycin, and 10% fetal bovine serum in a humidified environment with 5% CO2, and transfected with 1 microgram/ml of NR1 or 1:2 microgram/ml NR1:NR2 cDNA. Cells were washed in ice-cold HEPES buffered saline (HBS), scraped on ice, and membranes isolated by centrifugation at 12,000×g. […] Adult rat brain regions were dissected, frozen in liquid nitrogen, homogenized in ice-cold HEPES buffered saline (HBS), centrifuged, and stored at −20° C. Membranes were resuspended in HBS and treated with thrombin or buffer for 30 min at 37° C. Samples were centrifuged, and the membrane pellet resuspended in 2% sodium dodecylsulphate (SDS), 62.5 mM Tris, 10% glycerol, 5% beta-mercaptoethanol, 0.05% bromophenol blue (pH 6.8); some samples were treated with IOU DNase for 10 min at 37° C. SDS/polyacrylamide gel electrophoresis (SDS/PAGE) and protein blotting to Immobilon-P membranes was performed as described (Lau and Huganir, Differential tyrosine phosphorylation of N-methyl-D-aspartate receptor subunits. J Biol Chem 270: 20036-20041, 1995). Membranes were blocked for 30 min in 0.2 M Tris base, 1.37 M NaCl, pH 7.4, containing 5% nonfat dry milk, and incubated overnight at 4° C. in primary antibodies: NR1 mAb54.1 (gift from Dr. S. Heinemann, Salk Institute, La Jolla Calif.), NR1 alt-C-terminal (Upstate Biotechnology, Lake Placid, N.Y.), NR2A C-terminal (Chemicon, Temecula, Calif.), or NR2B C-terminal (Upstate Biotechnology). Membranes were washed 3×, and incubated with HRP-conjugated goat anti-mouse or goat anti-rabbit antibodies (1:10,000), washed 3×, and developed using enhanced chemiluminescence. The percent of receptor cleaved by thrombin was determined using densitometry.

[4] = system: NMDA receptor; test: Whole cell patch recording of NMDA-evoked currents in hippocampal slice CA1 pyramidal neurons; format: cell-based, rat; details: for average peak potentiation by thrombin: 1.4 mM Mg2+, n=19
[5] = system: PAR1; format: cell-based, rat
[6] = target: T1, NR1 subunit (Rattus norvegicus, UniProt P35439); test: Thrombin cleavage of recombinant NR1 subunits in HEK 293 cells (immunoblot); format: biochemical; details: 10-1000 U/ml thrombin
T1 construct: expressed in transfected cells; host or cells: HEK 293 cells, transient transfection; isolated membranes treated with thrombin
Method: as §1, with “Membranes were blocked for 30 min in 0.2 M Tris base, 1.37 M NaCl, pH 7.4, containing 5% nonfat dry milk, and incubated overnight at 4° C. in primary antibodies: NR1 mAb54.1 (gift from Dr. S. Heinemann, Salk Institute, La Jolla Calif.), NR1 alt-C-terminal (Upstate Biotechnology, Lake Placid, N.Y.), NR2A C-terminal (Chemicon, Temecula, Calif.), or NR2B C-terminal (Upstate Biotechnology). Membranes were washed 3×, and incubated with HRP-conjugated goat anti-mouse or goat anti-rabbit antibodies (1:10,000), washed 3×, and developed using enhanced chemiluminescence.” left out

[7] = system: NR1 subunit; test: NMDA receptor subunit immunoblots of thrombin-treated brain membranes; format: biochemical, rat; remark: listed apart in the source
[8] = system: PAR1; test: PI hydrolysis in hippocampal slices; format: cell-based, mouse; details: wild type hippocampus / hippocampal slices
Description: PAR1 is a seven transmembrane G-protein coupled receptor that stimulates G-alpha-q to initiate phosphatidyl inositol (PI) hydrolysis. To ensure that PAR1 is functional in regions of the brain that are subject to ischemic damage in the mouse transient focal ischemia model, we tested the ability of several activators of PAR1 to initiate PI hydrolysis (Chung et al., 1997) in the hippocampus and striatum.
Since tPA activates plasminogen to form plasmin, we tested whether exogenously applied tPA could activate endogenous plasminogen in brain slices to form plasmin and activate PAR1.

[9] = system: NMDA receptor; test: Two electrode voltage clamp of recombinant NMDA receptors with or without PAR1 in Xenopus oocytes; format: cell-based, Xenopus laevis
Method: Expression and recording of NMDA and PAR1 receptor function in Xenopus laevis oocvtes. cRNA was synthesized from linearized template cDNA according to manufacturer specifications (Ambion, Austin, Tex.). Xenopus oocytes were removed from ovaries of female frogs anesthetized with 0.3% 3-aminobenzoic acid ethylester. Groups of 20-30 stage V-VI oocytes were incubated in 292 U/ml Worthington (Freehold, N.J.) Type IV collagenase for 2 hours with slow shaking. The oocytes were rinsed in Barth's solution, and stored at 17° C. in Barth's solution supplemented with 100 microgram/ml gentamycin and 40 microgram/ml streptomycin. Control oocytes were injected with 3 ng NR1 subunit and 7 ng NR2B subunit. Other oocytes were injected with the NMDA receptor subunits plus 3 ng PAR1 cRNA. Two electrode voltage clamp recordings were made 3-7 days post-injection. Oocytes were continually perfused with recording solution (in mM, 90 NaCl, 1 KCl, 10 HEPES, pH 7.4) and held under voltage clamp at −30 to −50 mV with an OC-725B amplifier (Warner Instruments, Hamden, Conn.). Recording solution was supplemented with 1.0 mM CaCl2 during initial impalement of the oocytes and subsequently 0.5 mM BaCl2 during recording to reduce the calcium-activated chloride current endogenous to oocytes. […] NMDA receptor currents were evoked by 20 micromolar glutamate/10 micromolar glycine perfused for 0.5-1 minute. […] Expression of PAR1 protein was verified by a thrombin or SFLLRN-stimulated rapidly desensitizing inward current at −30 mV that reflects the Ca^2+-activated Cl^− current endogenous to the oocyte. To test the ability of thrombin to modify NMDA receptor function in oocytes, recordings of receptor function were made both before and after a 15-60 min incubation in recording solution supplemented with thrombin in Eppendorf tubes at room temperature. […] Oocytes with responses less than 50 nA were not included in the analysis.

In the case of thrombin, the NMDA receptor responses ([1]; PAR1-/- C57B1/6 mice, thrombin application) was “did not significantly increase”, the “potentiation of responses to pressure-applied NMDA plus glycine” value ([1]; wild-type C57B1/6 mice, 3 U/ml thrombin) was “robust potentiation” and the “intensity of transmitted light I/Io” value ([2]; stratum pyramidale) was 1.00±0.01. For the same substance, the “intensity of transmitted light I/Io” value ([2]; stratum radiatum) was 1.01±0.01, the NR1 subunits cleaved ([3]; 1-3 micromolar thrombin, all brain regions except striatum) was 100% and the “molecular weight shift of NR2A or NR2B subunits” value ([3]; brain membranes, 3-300 U/ml thrombin) was “did not induce any observable molecular weight shift”. The “cleavage of NR1 subunits” value ([3]; cerebellar, cortical and brainstem membranes, 300 nM thrombin (30 U/ml)) was “insensitive to cleavage”, the NR1 cleaved ([3]; striatal membranes, 30 nM thrombin (3 U/ml)) was 50% and the “maximal observed cleavage of NR1” value ([3]; striatum, 1-3 micromolar thrombin) was 52%. The “peak potentiation of NMDA responses” value ([4]; 30 nM (3 U/ml) thrombin, -70 mV, within 20 minutes, n=21) was 2.07±0.27 fold, the “average peak potentiation by thrombin” value ([4]; -40 mV) was 1.48±0.11 fold and the “average peak potentiation by thrombin” value ([4]; -70 mV) was 2.10±0.29 fold. For the same substance, the “thrombin potentiation of the NMDA response” value ([4]; cells excluded for low input resistance or increased series resistance, n=12) was 1.8±0.2 fold, the thrombin-induced potentiation ([4]; cells held at 0 mV, briefly stepped to -70 mV, n=7) was 2.7±0.7 fold and the “Fluo-3 fluorescence in soma and dendrites” value [5] was “robust increase”. For the same substance, the “cleavage of recombinant NR1-1b and NR1-1b/NR2B receptors” value [6] was “cleaved both homomeric NR1-1b receptors”, the “predicted cleavage of NR1 protein” value ([7]; 15 minute treatment of slices at 23 C, 3 U/ml, extrapolated assuming linear time, Q10 2.5) was 1% and the “NR1 cleavage product in CA1 region microdissected from slices” value ([7]; 15 minutes of 3 U/ml thrombin application at 23 C) was “no NR1 cleavage product was observed”. The NR1 subunit cleaved ([7]; hippocampal membranes, 30 nM thrombin (3 U/ml), 1 hour at 37 C) was 20%, the PI hydrolysis [8] was “increased PI hydrolysis” and the “potentiation of NR1-1a/NR2A receptors coexpressed with PAR1” value ([9]; 3 nM thrombin, n=6) was 1.68±0.11 fold. The “potentiation of NR1-1a/NR2A receptors coexpressed with PAR1” value ([9]; 300 μM thrombin (so in the source), n=7) was 1.37±0.08 fold, the “current response amplitude after incubation” value ([9]; 300-1000 nM thrombin, 60 minutes, n=7, buffer controls 78±5%) was 42±9% and the “ratio of NMDA receptor-mediated current after to before application” value ([9]; NR1-1a/NR2B, oocytes without PAR1, n=9) was 0.87±0.04. The “PAR1 potentiation of NR1-1a(C798A)/NR2B receptors” value ([9]; control oocytes lacking PAR1, n=5) was 0.98±0.05, the “cleavage of NR1 subunit” value ([9]; low concentrations of thrombin (0.3-3 nM)) was “did not produce any cleavage” and the “response amplitude of NR1/NR2A and NR1/NR2B receptors vs buffer” value ([9]; oocytes lacking thrombin receptors, 3 U/ml, 15 minutes, 23 C) was “no significant difference”. The “PAR1 potentiation of NR1-1a(C798A)/NR2B receptors” value ([9]; oocytes with PAR1, n=7) was 1.35±0.07, the “potentiation of NR2A containing receptors” value ([9]; presence of 10 micromolar EDTA, n=12) was 2.01±0.17 fold and the “amplitude of NMDA receptor responses, NR1-1a with NR2c or NR2D” value ([9]; thrombin activation of PAR1) was “unaffected”.
